Laboratory results: publication PMC3336937 (2012)

Target: T1, KcsA (Streptomyces lividans, UniProt P0A334)
T1 sequence (P0A334 1-160): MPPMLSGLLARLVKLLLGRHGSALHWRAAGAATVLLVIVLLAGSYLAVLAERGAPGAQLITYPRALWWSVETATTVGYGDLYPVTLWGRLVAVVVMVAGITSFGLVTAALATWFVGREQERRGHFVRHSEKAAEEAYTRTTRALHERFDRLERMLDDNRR
Assay: Trp fluorescence quenching, purified reconstituted wild-type KcsA
Assay type: binding

## CCCCCCCCC(Br)C(Br)CCCCCCCC(=O)O (stereo not shown) [BrSA, 9,10-dibromostearic acid]
  Trp fluorescence quenching, purified reconstituted wild-type KcsA; binding const: 0.67 ± 0.04
